Laboratory results published in US8338565B2, “Macrocyclic compounds for inhibition of tumor necrosis factor alpha” (Ensemble Therapeutics Corporation, priority 2008, dated 2012).
Read-outs that look alike come from different tables or passages of the source. Numbered stars: 1 amine (or outer) side, 2 acyl side, 3 side chain; on linkers, the order of the positions; unused ones are H or OH. Bridge positions count the residues as written; N and C are the ends. Square brackets hold non-standard residues; d marks the D form. Peptide text beside a SMILES is read from it. Tartaroyl(2R,3R-(OAc)2) = CC(=O)O[C@@H](C(=O)[*:1])[C@@H](OC(C)=O)C(=O)[*:2]; Phe(4-CF3) = N[C@@H](Cc1ccc(C(F)(F)F)cc1)C(=O)O; Phe(4-COOH) = N[C@@H](Cc1ccc(C(=O)O)cc1)C(=O)O; Bip = N[C@@H](Cc1ccc(-c2ccccc2)cc1)C(=O)O; dPhe(4-NH2) = Nc1ccc(C[C@@H](N)C(=O)O)cc1; Phe(4-Br) = N[C@@H](Cc1ccc(Br)cc1)C(=O)O; Phe(4-NH2) = Nc1ccc(C[C@H](N)C(=O)O)cc1; d(hPhe) = N[C@H](CCc1ccccc1)C(=O)O; Igl = N[C@H](C(=O)O)C1Cc2ccccc2C1; 2Thi = N[C@@H](Cc1cccs1)C(=O)O; d2Thi = N[C@H](Cc1cccs1)C(=O)O; Suc = O=C(CCC(=O)[*:2])[*:1]; Nphe = O=C(O)CNCc1ccccc1; βAla = NCCC(=O)O

Molecular target: T1, TNFα / TNFα receptor (TNFα R1/Fc) (Homo sapiens, UniProt P01375)
T1 construct: purchased R&D Systems
Experiment: Inhibition of binding of TNFα to the TNFα receptor (plate ELISA competition)
Conditions: Table 2
Method in brief: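 Plates were coated with TNFα at 15 nM. Test compound and 8.33 nM receptor-Fc (PBST, 2% DMSO) were first mixed in solution for 30 min at room temperature, then transferred to the plates for another 30 min. Competition was read by absorbance at 450 nm after HRP anti-human IgG Fc detection with TMB.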

[1] = read-out: Activity (IC50, inhibition of TNFα binding to TNFα R1/Fc)

T1 sequence (P01375 77-233 limits assumed, species assumed): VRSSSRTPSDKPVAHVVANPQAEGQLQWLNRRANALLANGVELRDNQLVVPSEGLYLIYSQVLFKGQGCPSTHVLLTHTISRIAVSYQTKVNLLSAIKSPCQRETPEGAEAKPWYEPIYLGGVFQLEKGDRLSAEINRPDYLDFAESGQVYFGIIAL

| IC50 [1] | Structure (SMILES) | IC50 (Activity (IC50, inhibition of TNFα binding to TNFα R1/Fc)) |
| --- | --- | --- |
| < 10 µM | O=C1CCNC(=O)c2ccc(cc2)C[C@@H](C(=O)N[C@@H](Cc2ccccc2)C(=O)O)NC(=O)[C@@H](Cc2ccccc2)NC(=O)[C@H](Cc2ccc(-c3ccccc3)cc2)NC(=O)[C@@H](CCc2ccccc2)N1 [Compound 422] ([βAla][d(hPhe)][Bip][dF][Phe(4-COOH)]F-OH; lactam N-5) |  |
| 30 to 100 µM | O=C(O)[C@@H]1Cc2ccc(cc2)NC(=O)[C@H](O)[C@@H](O)C(=O)N[C@H](CCc2ccccc2)C(=O)N[C@@H](Cc2ccc(-c3ccccc3)cc2)C(=O)N[C@H](Cc2ccccc2)C(=O)N1 [Compound 246] |  |
| > 100 µM | O=C1CN(Cc2ccccc2)C(=O)[C@H](Cc2ccc(-c3ccccc3)cc2)NC(=O)[C@H](Cc2cccs2)NC(=O)COc2ccc(cc2)C[C@@H](C(=O)O)N1 [Compound 257] |  |
| > 100 µM | N[C@H]1CC(=O)N[C@H](Cc2cccs2)C(=O)N[C@@H](Cc2ccc(-c3ccccc3)cc2)C(=O)N[C@H](Cc2ccccc2)C(=O)N[C@H](C(=O)O)Cc2ccc(cc2)NC1=O [Compound 373] |  |
| < 10 µM | C[C@@H](NC(=O)[C@@H]1Cc2ccc(cc2)OCC(=O)N[C@@H](Cc2ccncc2)C(=O)N[C@H](Cc2ccc(-c3ccccc3)cc2)C(=O)N[C@@H](CCc2ccccc2)C(=O)N1)C(=O)O [Compound 557] |  |
| < 10 µM | O=C1COc2ccc(cc2)C[C@@H](C(=O)NCS(=O)(=O)O)NC(=O)[C@H](CCc2ccccc2)NC(=O)[C@@H](Cc2ccc(-c3ccccc3)cc2)NC(=O)[C@H](Cc2ccc(-c3ccncc3)cc2)N1 [Compound 617] |  |
| > 100 µM | O=C(O)CCNC(=O)[C@@H]1Cc2ccc(cc2)NC(=O)CCC(=O)N[C@H](Cc2ccccc2)C(=O)N[C@@H](Cc2ccc(-c3ccccc3)cc2)C(=O)N[C@H](CCc2ccccc2)C(=O)N1 [Compound 459] ([dF][Bip][d(hPhe)][Phe(4-NH2)][βAla]-OH; linker N-4 via Suc) |  |
| > 100 µM | O=C1CCC(=O)N[C@@H](Cc2cccs2)C(=O)N[C@@H](Cc2ccc(-c3ccccc3)cc2)C(=O)N[C@H](Cc2ccccc2)C(=O)N[C@@H](C(=O)O)Cc2ccc(cc2)N1 [Compound 499] ([2Thi][Bip][dF][dPhe(4-NH2)]-OH; linker N-4 via Suc) |  |
| 10 to 30 µM | Cn1cnc(C[C@@H]2NC(=O)COc3ccc(cc3)C[C@@H](C(=O)O)NC(=O)[C@H](CCc3ccccc3)NC(=O)[C@@H](Cc3ccc(-c4ccccc4)cc3)NC2=O)c1 [Compound 706] |  |
| > 100 µM | O=C1CCC(=O)N[C@H](Cc2cccs2)C(=O)N[C@@H](C2Cc3ccccc3C2)C(=O)N[C@H](Cc2ccccc2)C(=O)N[C@H](C(=O)O)Cc2ccc(cc2)N1 [Compound 99] ([d2Thi][Igl][dF][Phe(4-NH2)]-OH; linker N-4 via Suc) |  |
| < 10 µM | O=C(O)[C@H](Cc1ccccc1)NC(=O)[C@H]1Cc2ccc(cc2)NC(=O)[C@H](O)[C@@H](O)C(=O)N[C@@H](Cc2cccs2)C(=O)N[C@H](Cc2ccc(-c3ccccc3)cc2)C(=O)N[C@@H](CCc2ccccc2)C(=O)N1 [Compound 432] |  |
| 30 to 100 µM | O=C1COc2ccc(cc2)C[C@@H](C(=O)O)NC(=O)[C@H](CCc2ccccc2)NC(=O)[C@@H](Cc2ccc(-c3ccccn3)cc2)NC(=O)[C@H](Cc2ccncc2)N1 [Compound 664] |  |
| > 100 µM | O=C1CCC(=O)N[C@H](Cc2cccs2)C(=O)N[C@H](c2ccc(Br)cc2)CC(=O)N[C@H](Cc2ccccc2)C(=O)N[C@H](C(=O)O)Cc2ccc(cc2)N1 [Compound 107] |  |
| > 100 µM | CC(=O)O[C@H]1C(=O)Nc2ccc(cc2)C[C@H](C(=O)O)NC(=O)[C@@H](Cc2ccccc2)NC(=O)[C@H](Cc2ccc(Br)cc2)NC(=O)[C@@H](Cc2ccccc2)NC(=O)[C@@H]1OC(C)=O [Compound 231] ([dF][Phe(4-Br)][dF][dPhe(4-NH2)]-OH; linker N-4 via Tartaroyl(2R,3R-(OAc)2)) |  |
| < 10 µM | O=C1COc2ccc(cc2)C[C@H](C(=O)N[C@H](CCc2ccccc2)C(=O)O)NC(=O)[C@H](Cc2ccccc2F)NC(=O)[C@@H](Cc2ccc(-c3ccccc3)cc2)NC(=O)[C@H](Cc2ccncc2)N1 [Compound 736] |  |
| < 10 µM | O=C1COc2ccc(cc2)C[C@@H](C(=O)O)NC(=O)[C@H](Cc2ccccc2)NC(=O)[C@@H](Cc2ccc(-c3ccccc3)cc2)NC(=O)[C@H](Cc2ccncc2)N1 [Compound 646] |  |
| > 100 µM | O=C1COc2ccc(cc2)C[C@@H](C(=O)O)NC(=O)[C@@H](Cc2ccc(F)cc2)NC(=O)[C@H](Cc2ccc(-c3ccccc3)cc2)NC(=O)[C@@H](Cc2cccs2)N1 [Compound 532] |  |
| < 10 µM | O=C1COc2ccc(cc2)C[C@@H](C(=O)O)NC(=O)[C@H](CCc2ccccc2)NC(=O)[C@@H](Cc2ccc(-c3ccccc3)cc2)NC(=O)[C@H](Cc2ccc(-c3ccc(Cl)cc3)cc2)N1 [Compound 702] |  |
| > 100 µM | O=C1COc2ccc(cc2)C[C@@H](C(=O)N[C@@H](Cc2ccc(O)cc2)C(=O)O)NC(=O)[C@H](Cc2ccccc2)NC(=O)[C@@H](Cc2ccc(-c3ccccc3)cc2)NC(=O)[C@H](Cc2cccs2)N1 [Compound 387] |  |
| 30 to 100 µM | N#Cc1ccc(C[C@H]2NC(=O)[C@H](O)[C@@H](O)C(=O)Nc3ccc(cc3)C[C@@H](C(=O)O)NC(=O)[C@@H](Cc3ccccc3)NC(=O)[C@H](Cc3ccc(-c4ccccc4)cc3)NC2=O)cc1 [Compound 260] |  |

| IC50 [1] | Structure (SMILES) | IC50 (Activity (IC50, inhibition of TNFα binding to TNFα R1/Fc)) |
| --- | --- | --- |
| > 100 µM | O=C(O)[C@@H]1Cc2ccc(cc2)NC(=O)[C@H](O)[C@@H](O)C(=O)N[C@H](Cc2cccs2)C(=O)N[C@@H](Cc2ccc(-c3ccccc3)cc2)C(=O)N[C@H](Cc2ccc(F)cc2)C(=O)N1 [Compound 288] |  |
|  | C[C@@H](C(=O)O)N(C)C(=O)[C@@H]1Cc2ccc(cc2)OCC(=O)N[C@@H](Cc2cccs2)C(=O)N[C@H](Cc2ccc(-c3ccccc3)cc2)C(=O)N[C@@H](CCc2ccccc2)C(=O)N1 [Compound 575] | < 10 µM |
| > 100 µM | O=C1CCCc2cn(nn2)C[C@@H](C(=O)O)NC(=O)[C@@H](Cc2ccccc2)NC(=O)[C@H](Cc2ccc(C(F)(F)F)cc2)NC(=O)[C@@H](CCc2ccccc2)N1 [Compound 543] |  |
| 30 to 100 µM | COc1ccc(-c2ccc(C[C@@H]3NC(=O)[C@@H](CCc4ccccc4)NC(=O)CCC(=O)Nc4ccc(cc4)C[C@@H](C(=O)O)NC(=O)[C@@H](Cc4ccccc4)NC3=O)cc2)cc1 [Compound 168] |  |
| < 10 µM | O=C1COc2ccc(cc2)C[C@@H](C(=O)O)NC(=O)[C@H](CCc2ccccc2)NC(=O)[C@@H](Cc2ccc(-c3ccccc3)cc2)NC(=O)[C@H](Cc2ccc([N+](=O)[O-])cc2)N1 [Compound 512] |  |
| < 10 µM | C[C@H](NC(=O)[C@@H]1Cc2ccc(cc2)OCC(=O)N[C@@H](Cc2ccc(-c3ccccc3)cc2)C(=O)N[C@H](Cc2ccc(-c3ccccc3)cc2)C(=O)N[C@@H](CCc2ccccc2)C(=O)N1)C(=O)O [Compound 572] |  |
| > 100 µM | C[C@@H]1NC(=O)[C@@H](Cc2cccs2)NC(=O)CCC(=O)Nc2ccc(cc2)C[C@@H](C(=O)O)NC(=O)[C@@H](Cc2ccccc2)NC1=O [Compound 45] ([d2Thi]A[dF][Phe(4-NH2)]-OH; linker N-4 via Suc) |  |
| > 100 µM | O=C1CCC(=O)N[C@H](Cc2cccs2)C(=O)N[C@@H](Cc2ccc(-c3ccccc3)cc2)C(=O)N(Cc2ccccc2)CC(=O)N[C@H](C(=O)O)Cc2ccc(cc2)N1 [Compound 55] ([d2Thi][Bip][Nphe][Phe(4-NH2)]-OH; linker N-4 via Suc) |  |
| 10 to 30 µM | CC(C)(C)c1ccc(C[C@@H]2NC(=O)COc3ccc(cc3)C[C@@H](C(=O)O)NC(=O)[C@H](CCc3ccccc3)NC(=O)[C@@H](Cc3ccc(-c4ccccc4)cc3)NC2=O)cc1 [Compound 515] |  |
| 10 to 30 µM | O=C1N[C@H](CCc2ccccc2)C(=O)N[C@@H](C(=O)O)Cc2ccc(cc2)NC(=O)[C@H](O)[C@@H](O)C(=O)N[C@H](Cc2cccs2)C(=O)N[C@H]1Cc1ccc(Cl)cc1Cl [Compound 240] |  |
| > 100 µM | N[C@@H]1CC(=O)N[C@H](Cc2cccs2)C(=O)N[C@@H](Cc2ccc(-c3ccccc3)cc2)C(=O)N[C@H](Cc2ccccc2)C(=O)N[C@H](C(=O)O)Cc2ccc(cc2)NC1=O [Compound 374] |  |
| < 10 µM | O=C(O)CNC(=O)[C@@H]1Cc2ccc(cc2)OCC(=O)N[C@@H](Cc2cccs2)C(=O)N[C@H](Cc2ccc(-c3ccccc3)cc2)C(=O)N[C@@H](CCc2ccccc2)C(=O)N1 [Compound 472] |  |
| > 100 µM | O=C1CCC(=O)N[C@H](CCc2ccccc2)C(=O)N[C@@H](Cc2ccc(C(F)(F)F)cc2)C(=O)N[C@H](Cc2ccccc2)C(=O)N[C@H](C(=O)O)Cc2ccc(cc2)N1 [Compound 2] ([d(hPhe)][Phe(4-CF3)][dF][Phe(4-NH2)]-OH; linker N-4 via Suc) |  |
| < 10 µM | O=C1COc2ccc(cc2)C[C@@H](C(=O)O)NC(=O)[C@H](CCc2ccccc2)NC(=O)[C@@H](Cc2ccc(-c3ccccc3)cc2)NC(=O)[C@H](Cc2cn(-c3ccccc3)nn2)N1 [Compound 693] |  |
| > 100 µM | O=C(O)CC[C@@H]1NC(=O)[C@H](Cc2ccc(-c3ccccc3)cc2)NC(=O)[C@H](Cc2cccs2)NC(=O)COc2ccc(cc2)C[C@@H](C(=O)O)NC1=O [Compound 258] |  |
| > 100 µM | COc1ccc(C[C@H]2NC(=O)[C@H](Cc3ccc(-c4ccccc4)cc3)NC(=O)[C@@H](Cc3cccs3)NC(=O)COc3ccc(cc3)C[C@@H](C(=O)O)NC2=O)cc1 [Compound 535] |  |
| < 10 µM | O=C1COc2ccc(cc2)C[C@@H](C(=O)N[C@@H](Cc2ccccc2)c2nnn[nH]2)NC(=O)[C@H](CCc2ccccc2)NC(=O)[C@@H](Cc2ccc(-c3ccccc3)cc2)NC(=O)[C@H](Cc2ccncc2)N1 [Compound 592] |  |
| > 100 µM | O=C1COc2ccc(cc2)C[C@@H](C(=O)O)NC(=O)[C@H](Cc2ccccc2)NC(=O)[C@H](Cc2ccc(-c3ccccc3)cc2)NC(=O)[C@H](Cc2ccc(OCc3ccccc3)cc2)N1 [Compound 491] |  |
| < 10 µM | COC(=O)[C@@H]1Cc2ccc(cc2)NC(=O)CCC(=O)N[C@H](Cc2cccs2)C(=O)N[C@@H](Cc2ccc(-c3ccccc3)cc2)C(=O)N[C@H](Cc2ccccc2)C(=O)N1 [Compound 192] ([d2Thi][Bip][dF][Phe(4-NH2)]-OMe; linker N-4 via Suc) |  |
